Bliss excess data for five molecules are collected here from the supplement of paper PMC11061612.

What all share (test): Bliss excess, mean over the matrix (fraction); higher = more synergy
The subject of test [1] is EFM-19 (Breast Carcinoma). The procedure, abridged:
(§1)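 After 24 hours at 37°C and 5% CO2 in 1536-well plates, cells in DMEM/F12 or RPMI plus 10% FBS received two-drug dose matrices for 72 hours. Viability came from CellTiter-Glo 2.0 luminescence and was scaled as inhibition, anchored at 0 by vehicle wells and at 1 by blank wells. Combination Emax is taken as the second-highest inhibition in the matrix, and Bliss excess as the observed combination effect less EA + EB − EA·EB, with EA and EB the single-agent effects.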

For test [2], the system named is EoL-1-cell (Acute Myeloid Leukemia). Put shortly:
as §1

Test [3] deals with KARPAS-299 (T-Cell Non-Hodgkin's Lymphoma). The procedure, abridged:
as §1

In test [4] the test system is KMOE-2 (Acute Myeloid Leukemia). The procedure, abridged: as §1
In test [5] the test system is HOP-62 (Lung Adenocarcinoma). Put shortly:
as §1

The subject of test [6] is KYSE-450 (Esophageal Squamous Cell Carcinoma). The procedure, abridged: as §1
Test [7] has as its system NCI-H727 (Other Solid Carcinomas). The procedure, abridged: as §1
Test [8] relates to Caov-4 (Ovarian Carcinoma). The procedure, abridged:
as §1

The subject of test [9] is TGW (Neuroblastoma). Put shortly: as §1
Test [10] deals with VA-ES-BJ (Other Solid Carcinomas). Put shortly: as §1
The subject of test [11] is MLMA (Other Blood Carcinomas). The procedure, abridged:
as §1

The test system of test [12] is BT-549 (Breast Carcinoma). The procedure, abridged: as §1
Test [13] concerns NUGC-3 (Gastric Carcinoma). The procedure, abridged: as §1
The subject of test [14] is OSC-20 (Oral Cavity Carcinoma). Put shortly: as §1
The test system of test [15] is Hs-766T (Pancreatic Carcinoma). Put shortly:
as §1

Test [16] deals with EW-24 (Ewing's Sarcoma). Put shortly: as §1
Test [17] has as its system YH-13 (Glioblastoma). The procedure, abridged:
as §1

Test [18] deals with PWR-1E (Non-Cancerous). The procedure, abridged:
as §1

Test [19] deals with MIA-PaCa-2 (Pancreatic Carcinoma). Put shortly: as §1
The test system of test [20] is LU-65 (Non-Small Cell Lung Carcinoma). Put shortly: as §1

On to `CC1(C)CCC(CN2CCN(c3ccc(C(=O)NS(=O)(=O)c4ccc(NCC5CCOCC5)c([N+](=O)[O-])c4)c(Oc4cnc5[nH]ccc5c4)c3)CC2)=C(c2ccc(Cl)cc2)C1` [Venetoclax] + COc1cc(Nc2ncc3c(n2)-c2ccc(Cl)cc2C(c2c(F)cccc2OC)=NC3)ccc1C(=O)O [Alisertib] (first compound max 1 µM, 7x7, partner max 10 µM), for which the Bliss excess in test [1] is -0.0049; in test [2], 0.0132; in test [3], 0.134; in test [4], 0.0304; in [5] it was -0.0381; in [6], 0.007. Moreover, the Bliss excess in test [7] is -0.0707; in [8] it was 0.0149; in test [9], 0.0858; in [10], -0.0089; in test [11], -0.046; in test [12] it was 0.0371. Further, the Bliss excess is 0.0325 in test [13]; -0.051 in test [14]; -0.0765 in test [15]; 0.0205 in test [16]; 0.111 in [17]; -0.0103 in test [18]. In addition, the Bliss excess in [19] is -0.0131; in test [20], -0.0164.
Turning to `CC1(C)CCC(CN2CCN(c3ccc(C(=O)NS(=O)(=O)c4ccc(NCC5CCOCC5)c([N+](=O)[O-])c4)c(Oc4cnc5[nH]ccc5c4)c3)CC2)=C(c2ccc(Cl)cc2)C1` [Venetoclax] + C[C@@H]1COCCN1C2=NC(=NC(=C2)C3(CC3)[S@](=N)(=O)C)C4=C5C=CNC5=NC=C4 [AZD6738] (first compound max 1 µM, 7x7, partner max 10 µM), the Bliss excess in [1] is -0.0814; in [2], 0.0267; in test [3], -0.0328; in test [4], 0.0071; in test [5] it was -0.0649; in test [6] it was -0.061. The Bliss excess was -0.0801 in test [7]; -0.0228 in [8]; -0.0202 in test [9]; -0.0185 in [10]; -0.0275 in test [11]; -0.0331 in test [12]. Besides, the Bliss excess was -0.035 in test [13]; -0.0599 in test [14]; -0.0596 in [15]; 0.0218 in [16]; -0.0325 in test [17]; -0.0747 in [18]. The values for the Bliss excess in test [19] and in test [20] were -0.0632 and -0.1, respectively.
As for `CC1(C)CCC(CN2CCN(c3ccc(C(=O)NS(=O)(=O)c4ccc(NCC5CCOCC5)c([N+](=O)[O-])c4)c(Oc4cnc5[nH]ccc5c4)c3)CC2)=C(c2ccc(Cl)cc2)C1` [Venetoclax] + C[C@@H](Nc1cc(F)cc(F)c1)c1cc(C(=O)N(C)C)cc2c(=O)cc(N3CCOCC3)oc12 [AZD8186] (first compound max 1 µM, 7x7, partner max 3 µM), the Bliss excess in [1] was -0.0099; in test [2] it was 0.103; in test [3], -0.0074; in test [4] it was -0.0254; in test [5], -0.0412; in test [6], -0.0457. In addition, the Bliss excess in test [7] is -0.0654; in test [8], -0.0109; in [9], 0.0136; in test [10], -0.0245; in test [11], -0.0327; in test [12], -0.0328. The Bliss excess in test [13] is -0.0192; in [14], -0.0516; in test [15], -0.0487; in [16], -0.01; in test [17], -0.0336; in [18] it was -0.0112. The Bliss excess in test [19] is -0.0513; in test [20] it was -0.0235.
With `CC1(C)CCC(CN2CCN(c3ccc(C(=O)NS(=O)(=O)c4ccc(NCC5CCOCC5)c([N+](=O)[O-])c4)c(Oc4cnc5[nH]ccc5c4)c3)CC2)=C(c2ccc(Cl)cc2)C1` [Venetoclax] + Cc1cc2ncnn2cc1Nc1ncc2c(n1)n(C1CCOCC1)c(=O)n2C [AZD7648] (first compound max 1 µM, 7x7, partner max 10 µM), the Bliss excess in test [1] is -0.0469; in test [2] it was 0.0489; in test [3] it was 0.0487; in test [4] it was -0.0596; in test [5], -0.0711; in test [6], -0.0515. Also, the Bliss excess in test [7] is -0.0634; in [8], -0.0492; in test [9] it was 0.0025; in test [10], -0.0341; in [11] it was -0.0323; in test [12], -0.0328. Also, the Bliss excess in [13] was 0.0247; in [14], -0.0062; in [15], -0.0756; in [16], -0.0699; in [17], -0.0484; in [18] it was -0.0152. In addition, the figures for the Bliss excess in test [19] and in [20] were -0.0218 and -0.0418, respectively.
`CC1(C)CCC(CN2CCN(c3ccc(C(=O)NS(=O)(=O)c4ccc(NCC5CCOCC5)c([N+](=O)[O-])c4)c(Oc4cnc5[nH]ccc5c4)c3)CC2)=C(c2ccc(Cl)cc2)C1` [Venetoclax] + Cn1cnc2c(F)c(Nc3ccc(Br)cc3Cl)c(C(=O)NOCCO)cc21 [Selumetinib] (first compound max 1 µM, 7x7, partner max 3 µM): the Bliss excess in [1] was -0.0607; in test [2], 0.158; in test [3], -0.0102; in [4], -0.0168; in test [5], -0.0155; in test [6] it was -0.0432. In addition, the Bliss excess is -0.0534 in test [7]; 0.0087 in test [8]; 0.0099 in test [9]; -0.0473 in test [10]; 0.0401 in [11]; -0.0691 in test [12]. Further, the Bliss excess in test [13] is 0.0051; in test [14], -0.038; in test [15], -0.0346; in [16] it was -0.0463; in test [17] it was -0.0542; in test [18], -0.0327. The Bliss excess in [19] was -0.0073; in [20], -0.0153.
